Data as given in patent US20090318530A1, “PHARMACEUTICAL COMPOSITIONS COMPRISING NK1 RECEPTOR ANTAGONISTS AND SODIUM CHANNEL BLOCKERS” (GLAXO GROUP LIMITED, priority 2007, published 2009).
Where two headings read alike, the source gives them in different places.

Experiments:
[1] = test system: threshold for tonic hindlimb extensor seizures; assay: Maximal electroshock seizure threshold (MEST) test, 'up and down' method; type: in vivo, rat; conditions: male CD rats
Procedure: This work was conducted in compliance with the Home Office Guidance on the operation of the Animals (Scientific Procedures) Act 1986 and GlaxoSmithKline ethical standards. Male CD rats (100-145 g) were supplied by Charles River, UK. Animals were group housed (6 animal per cage) with free access to food (Standard rodent chow; Harlan, UK) and water under a 12 h light/dark cycle (lights on at 0700 h). A period of at least one week between arrival at GSK and the study was allowed in all cases.
Animals were administered a test compound at the appropriate dose, route and pre-treatment time and returned to their home cage. Testing occurred in a separate room from that used for housing. […] Seizure threshold was determined using the ‘up and down’ method of Kimball et al. (1957)(Kimball A W, Burnett W T Jr, Doherty D G. (1957) Radiat Res. 7(1):1-12). […]
All doses were calculated as base. […]
Induction of seizure is measured as an all-or-nothing effect scored as either present (+) or absent (0) for each animal. […] Drug effects were calculated as the % change in CC50. Significant differences between drug-treated animals and appropriate vehicle treated groups were assessed according to the methods of Litchfield and Wilcoxon (1949). The statistical significance of differences between (5R)-5-(4-{[(2-fluorophenyl)methyl]oxy}phenyl)-L-prolinamide or in combination with ENK6 was assessed using a Student's t test.

[2] = Blood and brain drug concentrations in satellite animals; type: in vivo; conditions: rat; for concentration at 30 min / concentration at 60 min: CD; for concentration at 30 min: subcutaneous; for concentration at 60 min: intraperitoneal
Procedure: […] Blood and brain samples were taken for analysis of the drug concentrations in these compartments.
All doses were calculated as base. ENa8 was dosed via the subcutaneous (s.c.) route at 1 ml/kg in a 2% v/v DMSO/saline vehicle 30 minutes prior to test. Compound ENK6 was dosed with via the intraperitoneal (i.p.) route 60 minutes before the test. ENK6 was dissolved in saline.

SMILES	seizure threshold in the MEST ([1]; ENa8 3 mg/kg s.c. alone, 30 min prior to test)	concentration at 30 min ([2]; brain, 1 mg/kg, ENa8 1 mg/kg, ENK6 veh, rat satellite animals n=2, read-out: Brain ENa8) [ng/g]	concentration at 30 min ([2]; brain, 3 mg/kg, ENa8 3 mg/kg, ENK6 veh, rat satellite animals n=2, read-out: Brain ENa8) [ng/g]	concentration at 30 min ([2]; brain, ENa8 1 mg/kg + ENK6 30 mg/kg, rat satellite animals n=2, read-out: Brain ENa8) [ng/g]	concentration at 30 min ([2]; brain, ENa8 3 mg/kg + ENK6 30 mg/kg, rat satellite animals n=2, read-out: Brain ENa8) [ng/g]	concentration at 30 min ([2]; whole blood, 1 mg/kg, ENa8 1 mg/kg, ENK6 veh, rat satellite animals n=2, read-out: Blood ENa8) [µg/mL]	concentration at 30 min ([2]; whole blood, 3 mg/kg, ENa8 3 mg/kg, ENK6 veh, rat satellite animals n=2, read-out: Blood ENa8) [µg/mL]	concentration at 30 min ([2]; whole blood, ENa8 1 mg/kg + ENK6 30 mg/kg, rat satellite animals n=2, read-out: Blood ENa8) [µg/mL]	concentration at 30 min ([2]; whole blood, ENa8 3 mg/kg + ENK6 30 mg/kg, rat satellite animals n=2, read-out: Blood ENa8) [µg/mL]	blood or brain concentration of ENa8 in the presence of ENK6 ([2]; ENa8 1 or 3 mg/kg s.c. with ENK6 30 mg/kg i.p. versus ENa8 alone)	seizure threshold in the MEST ([1]; ENK6 30 mg/kg i.p. alone, 60 min before test)	concentration at 60 min ([2]; brain, 30 mg/kg, ENK6 30 mg/kg, ENa8 veh, rat satellite animal n=1, read-out: Brain ENK6) [ng/g]	concentration at 60 min ([2]; brain, ENK6 30 mg/kg + ENa8 1 mg/kg, rat satellite animals n=2, read-out: Brain ENK6) [ng/g]	concentration at 60 min ([2]; brain, ENK6 30 mg/kg + ENa8 3 mg/kg, rat satellite animals n=2, read-out: Brain ENK6) [ng/g]	concentration at 60 min ([2]; whole blood, 30 mg/kg, ENK6 30 mg/kg, ENa8 veh, rat satellite animal n=1, read-out: Blood ENK6) [µg/mL]	concentration at 60 min ([2]; whole blood, ENK6 30 mg/kg + ENa8 1 mg/kg, rat satellite animals n=2, read-out: Blood ENK6) [µg/mL]	concentration at 60 min ([2]; whole blood, ENK6 30 mg/kg + ENa8 3 mg/kg, rat satellite animals n=2, read-out: Blood ENK6) [µg/mL]
Cl.NC(=O)[C@@H]1CC[C@H](c2ccc(OCc3ccccc3F)cc2)N1 [ENa8, (5R)-5-(4-{[(2-fluorophenyl)methyl}oxy]phenyl)-L-prolinamide hydrochloride]	small, but significant increase	1170	2300	1340	2620	0.188	0.349	0.246	0.456	No increase							
COc1ccc(-n2nnnc2C(F)(F)F)cc1CN[C@H]1CCCN[C@H]1c1ccccc1.Cl.Cl [ENK6, [2-Methoxy-5-(5-trifluoromethyl-tetrazol-1-yl)-benzyl]-([2S,3S]-2-phenyl-piperidin-3-yl)-amine dihydrochloride]											no effect	1510	1160	881	0.631	0.471	0.414
